Test results from ChEMBL document CHEMBL4673369, “ent-Kaurane-Based Diterpenoids, Dimers, and Meroditerpenoids from Isodon xerophilus” (J Nat Prod, 2020).
Active and inactive are the calls of the source. The rule behind the calls is not given here.

Columns and labels:
MCF7 = experiment: Cytotoxicity against human MCF7 cells assessed as reduction in cell viability; format: functional, cell-based
[1] = Cytotoxicity against human multidrug-resistant A549/Taxol cells assessed as reduction in cell viability; format: functional, cell-based
Staphylococcus aureus = experiment: Antibacterial activity against Staphylococcus aureus assessed as inhibition of growth at 100 uM after 24 hrs; format: functional, organism-based
A549 = experiment: Cytotoxicity against human A549 cells assessed as reduction in cell viability; format: functional, cell-based
SW480 = experiment: Cytotoxicity against human SW480 cells assessed as reduction in cell viability; format: functional, cell-based
RAW264.7 = experiment: Inhibition of LPS-induced NO production in mouse RAW264.7 cells incubated for 18 hrs by Griess reagent based assay; format: functional, cell-based; conditions: RAW264.7, 18 h
HL-60 = experiment: Cytotoxicity against human HL-60 cells assessed as reduction in cell viability; format: functional, cell-based
Candida albicans = experiment: Antifungal activity against fluconazole resistant Candida albicans kzs01 assessed as inhibition of growth at 100 uM after 24 hrs; format: functional, organism-based
SMMC-7721 = experiment: Cytotoxicity against human SMMC-7721 cells assessed as reduction in cell viability; format: functional, cell-based

Row | Structure (SMILES) | IC50 (MCF7) [µM] | IC50 [1] [µM] | inhibition (Staphylococcus aureus) | IC50 (A549) [µM] | IC50 (SW480) [µM] | IC50 (RAW264.7) [µM] | IC50 (HL-60) [µM] | inhibition (Candida albicans) | IC50 (SMMC-7721) [µM]
1 | COC[C@@]1(C[C@H]2C(=O)[C@@]34[C@H]5OC6O[C@@]3(O)[C@@H](O)[C@@H]3C(C)(C)CCC[C@]63[C@@H]4[C@@H](OC(C)=O)C[C@@H]25)C(=O)[C@]23[C@H](O)[C@@]4(O)OC5O[C@H]2[C@H]1C[C@H](OC(C)=O)[C@H]3[C@@]51CCCC(C)(C)[C@@H]41 (stereo partly drawn) | > 10 | > 10 | inactive | > 10 | > 10 | 42.2 | > 10 | inactive | > 10
2 | CC(=O)O[C@H]1C[C@@H]2[C@@H]3OC4O[C@@]5(O)[C@@H](O)[C@@H]6C(C)(C)CCC[C@]46[C@H]1[C@]35C(=O)[C@]21CCC2=C(O1)[C@@]13[C@H]4OC5O[C@@]1(O)[C@@H](O)[C@@H]1C(C)(C)CCC[C@]51[C@@H]3CC[C@@H]24 | > 10 | > 10 | inactive | > 10 | > 10 |  | > 10 | inactive | > 10
3 | COC[C@@]1(C[C@H]2C(=O)[C@@]34[C@H]5OC6O[C@@]3(O)[C@@H](O)[C@@H]3C(C)(C)CCC[C@]63[C@@H]4CC[C@@H]25)C(=O)[C@@]23[C@H]4OC5O[C@@]2(O)[C@@H](O)[C@@H]2C(C)(C)CCC[C@]52[C@@H]3[C@@H](OC(C)=O)C[C@H]41 | > 10 | > 10 | inactive | > 10 | > 10 | 11.1 | > 10 | inactive | > 10
4 | COC(=O)CCCCCC/C=C(/C=O)C[C@H]1C(=O)[C@@]23[C@H]4OC5O[C@@]2(O)[C@@H](O)[C@@H]2C(C)(C)CCC[C@]52[C@@H]3[C@@H](OC(C)=O)C[C@@H]14 | > 10 | > 10 | inactive | > 10 | > 10 |  | > 10 | inactive | > 10
5 | COC[C@H]1C(=O)[C@@]23[C@H]4OC5O[C@@]2(O)[C@@H](O)[C@@H]2C(C)(C)CCC[C@]52[C@@H]3[C@@H](OC(C)=O)C[C@@H]14 | > 10 | > 10 | inactive | > 10 | > 10 | 29.4 | > 10 | inactive | > 10
6 | CNC(=N)NCCC[C@H](N)C(=O)O [TILARGININE ACETATE] |  |  |  |  |  | 47.2 |  |  | 
7 | COC[C@@H]1C(=O)[C@]23[C@H](O)[C@H]1CC[C@H]2C12CCCC(C)(C)[C@H]1C(=O)[C@]3(O)[C@@H]2O | > 10 | > 10 | inactive | > 10 | > 10 |  | > 10 | inactive | > 10
8 | CC(=O)O[C@H]1C[C@@H]2[C@@H]3OC4O[C@@]5(O)[C@@H](O)[C@@H]6C(C)(C)CCC[C@]46[C@H]1[C@]35C(=O)[C@]21CO1 | > 10 | > 10 | inactive | > 10 | > 10 |  | > 10 | inactive | > 10
9 | COC[C@@H]1C(=O)[C@@]23[C@H]4OC5O[C@@]2(O)[C@@H](O)[C@@H]2C(C)(C)CCC[C@]52[C@@H]3[C@@H](OC(C)=O)C[C@@H]14 | > 10 | > 10 | inactive | > 10 | > 10 |  | > 10 | inactive | > 10
